Our source for the IC50 values is ChEMBL document CHEMBL1142237, “Cytotoxic triterpenoid saponins of Albizia gummifera from the Madagascar rain forest” (J Nat Prod, 2007).

Assay type in all cases: functional, cell-based
The nature of test [1]: Antiproliferative activity against human H522-T1 cells after 96 hrs. To be noted: H522-T1, 96 h.
The test system of test [2] is U-937. Kind of test: Antiproliferative activity against human U937 cells after 96 hrs. The note with it: U-937, 96 h.
Test [3] concerns HT-29. Briefly: Antiproliferative activity against human HT29 cells after 96 hrs. The note with it: HT-29, 96 h.
Test [4] deals with A2780. Briefly: Antiproliferative activity against human A2780 cells after 96 hrs. The note with it: A2780, 96 h.
For test [5], the system named is MDA-MB-435. Briefly: Antiproliferative activity against human MDA-MB-435 cells after 96 hrs. The note with it: MDA-MB-435, 96 h.

For `C=C[C@](C)(CC/C=C(\C)C(=O)O[C@H]1[C@H](O)[C@@H](O)[C@H](O[C@](C)(C=C)CC/C=C(\C)C(=O)O[C@H]2[C@H](O)[C@@H](O)[C@H](O[C@](C)(C=C)CC/C=C(/C)C(=O)O[C@H]3C[C@]4(C(=O)O[C@@H]5O[C@H](CO)[C@@H](O)[C@H](O)[C@H]5O[C@@H]5O[C@@H](C)[C@H](O[C@@H]6OC[C@@H](O)[C@H](O)[C@H]6O)[C@@H](O)[C@H]5O)[C@H](O)C[C@]5(C)C(=CC[C@@H]6[C@@]7(C)CC[C@H](O[C@@H]8O[C@H](CO[C@@H]9O[C@H](C)[C@H](O)[C@H](O)[C@H]9O)[C@@H](O)[C@H](O)[C@H]8O[C@@H]8O[C@H](CO)[C@@H](O)[C@H](O)[C@H]8O)C(C)(C)C7CC[C@]65C)[C@@H]4CC3(C)C)O[C@@H]2C)O[C@@H]1C)O[C@@H]1O[C@H](C)[C@@H](O)[C@H](O)[C@H]1O` (stereo not given in full) [GUMMIFERAOSIDE C], the IC50 turned out to be 640 nM in test [1]; 290 nM in test [2]; 610 nM in test [3]; 260 nM in test [4]; 480 nM in test [5].
